Reference: patent publication US10670605B2, “Cysteine reactive probes and uses thereof” (The Scripps Research Institute, priority 2015, dated 2020)
Values belong to the compound of their own block, whether it stands above or below them.

Key:
[1] = molecular target: T1, USP22 C44 (Q9UPT9) (Homo sapiens, UniProt Q9UPT9); assay: Competitive isoTOP-ABPP, cell lysates; assay type: binding
T1 sequence (Q9UPT9 1-525): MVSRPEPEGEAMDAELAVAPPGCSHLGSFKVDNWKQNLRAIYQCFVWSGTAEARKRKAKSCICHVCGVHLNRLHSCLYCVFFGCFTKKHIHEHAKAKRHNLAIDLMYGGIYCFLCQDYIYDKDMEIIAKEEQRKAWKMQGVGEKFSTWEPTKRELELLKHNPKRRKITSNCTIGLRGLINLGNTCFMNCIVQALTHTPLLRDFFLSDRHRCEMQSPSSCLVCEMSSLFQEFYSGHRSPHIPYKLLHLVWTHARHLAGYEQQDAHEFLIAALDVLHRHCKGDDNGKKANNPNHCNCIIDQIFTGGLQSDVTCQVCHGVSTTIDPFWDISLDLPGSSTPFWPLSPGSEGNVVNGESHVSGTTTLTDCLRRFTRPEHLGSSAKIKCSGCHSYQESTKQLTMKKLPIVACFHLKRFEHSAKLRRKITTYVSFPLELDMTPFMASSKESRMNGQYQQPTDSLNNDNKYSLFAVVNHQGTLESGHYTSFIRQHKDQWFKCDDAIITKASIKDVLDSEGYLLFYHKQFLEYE

[2] = molecular target: T2, KDM3A C251 (Q9Y4C1) (Homo sapiens, UniProt Q9Y4C1); assay: Competitive isoTOP-ABPP, cell lysates; assay type: binding; conditions: for R value (DMSO/fragment): 500 μM
T2 sequence (Q9Y4C1 1-1321): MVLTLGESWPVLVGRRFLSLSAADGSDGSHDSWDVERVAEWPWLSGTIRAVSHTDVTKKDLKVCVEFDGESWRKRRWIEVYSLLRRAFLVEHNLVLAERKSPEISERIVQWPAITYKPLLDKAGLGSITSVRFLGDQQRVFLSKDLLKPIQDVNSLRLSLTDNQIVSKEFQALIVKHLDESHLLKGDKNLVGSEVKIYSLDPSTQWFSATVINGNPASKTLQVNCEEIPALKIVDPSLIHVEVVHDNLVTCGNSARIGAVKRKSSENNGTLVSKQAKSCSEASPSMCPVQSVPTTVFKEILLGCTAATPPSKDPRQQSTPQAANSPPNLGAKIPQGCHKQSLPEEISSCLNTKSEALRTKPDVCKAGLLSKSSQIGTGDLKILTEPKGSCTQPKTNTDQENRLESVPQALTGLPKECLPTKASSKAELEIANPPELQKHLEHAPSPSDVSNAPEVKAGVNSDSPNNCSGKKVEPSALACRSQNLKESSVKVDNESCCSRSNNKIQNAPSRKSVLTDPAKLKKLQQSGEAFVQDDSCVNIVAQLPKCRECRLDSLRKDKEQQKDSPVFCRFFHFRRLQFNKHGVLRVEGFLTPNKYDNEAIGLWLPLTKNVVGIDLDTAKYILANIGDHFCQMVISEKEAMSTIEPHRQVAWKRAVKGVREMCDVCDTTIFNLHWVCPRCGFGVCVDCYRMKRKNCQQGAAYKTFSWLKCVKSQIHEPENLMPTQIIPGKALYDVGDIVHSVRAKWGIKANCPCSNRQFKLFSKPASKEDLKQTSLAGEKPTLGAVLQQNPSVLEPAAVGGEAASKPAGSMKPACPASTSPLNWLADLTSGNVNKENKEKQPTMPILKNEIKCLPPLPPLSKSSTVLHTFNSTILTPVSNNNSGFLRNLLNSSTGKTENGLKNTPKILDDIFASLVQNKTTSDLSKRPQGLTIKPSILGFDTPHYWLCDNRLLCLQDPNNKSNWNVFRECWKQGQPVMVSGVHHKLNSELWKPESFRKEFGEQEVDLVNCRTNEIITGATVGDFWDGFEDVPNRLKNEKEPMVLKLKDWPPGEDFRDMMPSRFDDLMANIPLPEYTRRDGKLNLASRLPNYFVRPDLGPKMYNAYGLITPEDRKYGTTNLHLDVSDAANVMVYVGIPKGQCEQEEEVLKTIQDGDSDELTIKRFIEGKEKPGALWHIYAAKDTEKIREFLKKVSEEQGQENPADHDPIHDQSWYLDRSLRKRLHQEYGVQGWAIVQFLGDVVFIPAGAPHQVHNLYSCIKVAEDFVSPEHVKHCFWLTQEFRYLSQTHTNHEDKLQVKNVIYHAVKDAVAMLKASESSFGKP

- isoTOP-ABPP ratio, Q9UPT9_C44 ([1]; 500 μM, invitro, ramos): 20.0
Compound: C=CC(=O)N(c1ccccc1)c1ccc(Br)cc1 [compound 5]

- isoTOP-ABPP ratio (reactivity profile), Q9UPT9_C44 ([1]; 500 μm in-vitro ramos): 1.2
- isoTOP-ABPP ratio (reactivity profile), Q9UPT9_C44 ([1]; 500 μm in-vitro ramos_231): 20.0
Compound: CC(C)CCOCCNC(=O)CCl [compound 27]

- R value (DMSO/fragment) ([2]; in vitro, MDA-MB-231): 4.4
- R value (DMSO/fragment) ([2]; invitro, ramos): 4.0
Compound: O=C(CCl)Nc1cc(C(F)(F)F)cc(C(F)(F)F)c1 [compound 3]

- isoTOP-ABPP ratio (reactivity profile), Q9Y4C1_C251 ([2]; 500 μm in-vitro ramos_231): 0.7
Compound: O=C(CCl)NC12CC3CC(CC(C3)C1)C2 [compound 21]

- isoTOP-ABPP reactivity profile ratio, Q9Y4C1_C251 ([2]; 500 μm, in-vitro_ramos_231): 1.0
Compound: C=CC(=O)N(c1ccccc1)C1CCCCC1 [compound 46]

- isoTOP-ABPP reactivity profile ratio, Q9UPT9_C44 ([1]; 500 μm, in-vitro_ramos): 2.1
Compound: COc1cc(NC(=O)CCl)cc(OC)c1 [compound 43]

- isoTOP-ABPP ratio (reactivity profile), Q9Y4C1_C251 ([2]; 500 μm in-vitro ramos): 1.3
Compound: CC(Br)C(=O)Nc1cc(C(F)(F)F)cc(C(F)(F)F)c1 (stereo not shown) [compound 24]

- isoTOP-ABPP reactivity ratio, Q9UPT9_C44 ([1]; 500 μm, in-vitro_ramos): 1.7
Compound: CCN(CC)c1ccc(S(N)(=O)=O)cc1NC(=O)CCl [compound 30]
